In paper PMC9980389, “Structural and biochemical insights into PsEst3, a new GHSR-type esterase obtained from Paenibacillus sp. R4” (IUCrJ, 2023):

What was measured:
PsEst3 [1] = target: T1, PsEst3 (Paenibacillus sp. R4, UniProt Z9AKP1HDK8); experiment: fluorescein diester hydrolysis, fluorescence […] nm; type: biochemical; conditions: 20 mM Tris-HCl pH 8.0, 150 mM NaCl, 30 °C, 0.1 µM substrate, 10% 2-ethoxyethanol, 0.005% CHAPS
T1 construct: pET-22b in E. coli BL21(DE3)/pPsyGroELS, 6xHis tag kept (Ni-NTA, SEC); residues 4-258 built, including part of the His tag
T1 sequence (Z9AKP1HDK8 1-257): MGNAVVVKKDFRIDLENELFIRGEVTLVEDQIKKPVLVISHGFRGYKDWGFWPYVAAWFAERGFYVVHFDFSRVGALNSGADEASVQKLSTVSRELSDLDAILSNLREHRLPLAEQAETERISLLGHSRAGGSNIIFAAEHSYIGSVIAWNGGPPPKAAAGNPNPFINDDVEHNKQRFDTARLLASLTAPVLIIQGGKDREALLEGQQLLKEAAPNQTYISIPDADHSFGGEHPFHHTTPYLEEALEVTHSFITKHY

PsEst3 [2] = target: T1, PsEst3; experiment: inhibition of pNP-C2 hydrolysis, absorbance […] nm; type: biochemical; conditions: substrate pNP-C2

| SMILES | fluorescein diester hydrolysis, fluorescence 492/512 nm (PsEst3 [1]) | % decrease in activity at 2.4 mM (PsEst3 [2]) |
| --- | --- | --- |
| CCCC(=O)Oc1ccc2c(c1)Oc1cc(OC(=O)CCC)ccc1C21OC(=O)c2ccccc21 [fluorescein-diC4, fluorescein dibutyrate] | fluorescein diesters (fluorescein-diC4, fluorescein-diC8 and fluorescein-diC12) were measured | – |
| O=C(O)/C=C\C(=O)O [maleic acid] | – | ~ 40% |
